Experimental data reported in PMC6993142 (Journal of natural products, 2017).

Key:
[1] = system: A549, Hep G2, Hep 3B, MCF-7 and MDA-MB-231 cell lines; conditions: MCF-7, MDA-MB-231, ref 11f; cited from earlier work
[2] = MTS dye cytotoxicity assay, normal HFF cells; type: cell-based; conditions: human, HFF cells (normal foreskin fibroblasts)
[3] = system: LNCaP (androgen-sensitive human prostate adenocarcinoma); test: MTS dye cytotoxicity assay, LNCaP; type: cell-based; conditions: for IC50: Homo sapiens, LNCaP, 72 h, read-out: Cytotoxicity IC50, LNCaP, LNCaP, 72 h, MTS
[4] = system: ACHN (human renal adenocarcinoma); test: MTS dye cytotoxicity assay, ACHN; type: cell-based; conditions: of the 26 withanolides tested
[5] = system: LNCaP (androgen-sensitive human prostate adenocarcinoma); conditions: previously shown; cited from earlier work
[6] = MTS dye cytotoxicity assay, whole panel; type: cell-based; conditions: human
[7] = system: RC cells (ACHN, Caki-1, and SN-12-C); conditions: in the presence of TRAIL; cited from earlier work
[8] = system: MCF-7, MDA-MB-231, H1299, Ca9–22 and HT-29 cells; conditions: MCF-7, MDA-MB-231, H1299, Ca9–22, HT-29; ref 11j, 11h, 11k, 11n; cited from earlier work

Structure (SMILES)	IC50 at 72 h [2] [µM]	IC50 at 72 h [6] [µM]	also measured
CC1=C(C)C(=O)O[C@@H]([C@](C)(O)[C@]2(O)CC[C@@]3(O)[C@@H]4C[C@@H](O)[C@@]5(Cl)CC=CC(=O)[C@]5(C)[C@H]4CC[C@]23C)C1 [Compound 27, withanolide C, reference compound]			Cytotoxic to cancer cell lines [1]: cytotoxic
CC1=C(C)C(=O)O[C@@H]([C@](C)(O)[C@]2(O)CC[C@@]3(O)[C@@H]4[C@@H](O)[C@H]5O[C@]56CC=CC(=O)[C@]6(C)[C@H]4CC[C@]23C)C1 [Compound 19, withaperuvin L]	> 2		
C[C@H]1C[C@H]([C@](C)(O)[C@]2(O)CC[C@@]3(O)[C@@H]4C[C@H]5O[C@]56CC=CC(=O)[C@]6(C)[C@H]4CC[C@]23C)OC(=O)[C@@H]1C [Compound 11, (20S,22R,24S,25R)-5β,6β-epoxy-14α,17β,20-trihydroxy-1-oxowitha-2-enolide]	> 2		
CC(=O)OC[C@]12CC[C@H]3[C@@H](C[C@H]4O[C@]45CC=CC(=O)[C@]35C)[C@]1(O)CC[C@@]2(O)[C@@](C)(O)[C@H]1CC(C)=C(C)C(=O)O1 [Compound 26, Physachenolide C, reference compound]	> 2		Enhancement of activity (26 vs 13) ([3]; LNCaP cells, acetoxylation at C-18): 3 fold; Selectivity for renal carcinoma (ACHN) cells [4]: showed selectivity; Activity for LNCaP cells [5]: selective and potent activity
CC1=C(C)C(=O)O[C@@H]([C@](C)(O)[C@]2(O)CC[C@@]3(O)[C@@H]4CC=C5CC=CC(=O)[C@]5(C)[C@H]4CC[C@]23C)C1 [Compound 22, withanolide F]	> 2		
CC1=C(C)[C@H](O)[C@H]([C@](C)(O)[C@]2(O)CC[C@@]3(O)[C@@H]4C[C@H]5O[C@]56CC=CC(=O)[C@]6(C)[C@H]4CC[C@]23C)OC1=O [Compound 6, (20S,22R)-5β,6β-epoxy-14α,17β,20,23β-tetrahydroxy-1-oxowitha-2,24-dienolide]	> 2		
CO[C@H]1C=CC(=O)[C@]2(C)[C@H]3CC[C@]4(C)[C@](O)([C@@](C)(O)[C@H]5CC(C)=C(C)C(=O)O5)CC[C@@]4(O)[C@@H]3C[C@H]3O[C@]132 [Compound 15, withangulatin E]	> 2		IC50 [3]: < 2 µM
C[C@H]1C(=O)O[C@@H]([C@](C)(O)[C@H]2CC[C@@]3(O)[C@@H]4CC=C5CC=CC(=O)[C@]5(C)[C@H]4CC[C@]23C)[C@@H](O)[C@@H]1CO [Compound 10, (20S,22R)-14α,20,23β,28-tetrahydroxy-1-oxowitha-2,5-dienolide]		> 5	
C[C@H]1C(=O)OC[C@H]1C[C@@H](O)[C@](C)(O)[C@@]1(O)CC[C@@]2(O)[C@@H]3CC=C4CC=CC(=O)[C@]4(C)[C@H]3CC[C@]12C [Compound 25, perulactone H]		> 5	
CC1=C(C)C(=O)O[C@@H]([C@](C)(O)[C@]2(O)CC[C@@]3(O)[C@@H]4C[C@H]5O[C@]56CC=CC(=O)[C@]6(C)[C@H]4CC[C@]23C)C1 [Compound 13, withanolide E]	> 2		Cytotoxic to cancer cell lines [1]: cytotoxic; Long-term survival of RC cells [7]: eliminate long-term survival; Selectivity for renal carcinoma (ACHN) cells [4]: showed selectivity
CC1=C(C)C(=O)O[C@@H]([C@](C)(O)[C@]2(O)CC[C@@]3(O)[C@@H]4CC=C5[C@@H](O)C=CC(=O)[C@]5(C)[C@H]4CC[C@]23C)C1 [Compound 20, physapruin A]	> 2		Selectivity for renal carcinoma (ACHN) cells [4]: showed selectivity
CC1=C(C)C(=O)O[C@@H]([C@](C)(O)[C@]2(O)CC[C@@]3(O)[C@@H]4C[C@H](Cl)[C@]5(O)[C@@H](O)C=CC(=O)[C@]5(C)[C@H]4CC[C@]23C)C1 [Compound 17, physalolactone]		> 5	
CO[C@]12CC=CC(=O)[C@]1(C)[C@H]1CC[C@]3(C)[C@](O)([C@@](C)(O)[C@H]4CC(C)=C(C)C(=O)O4)CC[C@@]3(O)[C@@H]1C[C@H]2O [Compound 16, withanolide S 5-methyl ether]		> 5	
CC1=C(C)C(=O)O[C@@H]([C@](C)(O)[C@]2(O)CC[C@@]3(O)[C@@H]4C[C@H]5O[C@]56[C@@H](O)C=CC(=O)[C@]6(C)[C@H]4CC[C@]23C)C1 [Compound 12, 4β-hydroxywithanolide E]	> 2		Cytotoxic to cancer cell lines [1]: cytotoxic; Inhibition of proliferation [8]: inhibit proliferation
CC1=C(C)C(=O)O[C@@H]([C@](C)(O)C2=CC[C@@]3(O)[C@@H]4C[C@H]5O[C@]56CC=CC(=O)[C@]6(C)[C@H]4CC[C@]23C)C1 [Compound 7, (20S,22R)-5β,6β-epoxy-14α,20-dihydroxy-1-oxowitha-2,16,24-trienolide]		> 5	
C[C@H]1C(=O)OC[C@H]1C[C@@H](O)[C@](C)(O)[C@]1(O)CC[C@@]2(O)[C@@H]3CC=C4CC=CC(=O)[C@]4(C)[C@H]3CC[C@]12C [Compound 24, perulactone B]		> 5	
CC1=C(C)C(=O)O[C@@H]([C@](C)(O)[C@]2(O)CC[C@@]3(O)[C@@H]4C[C@@H](O)[C@@]5(O)CC=CC(=O)[C@]5(C)[C@H]4CC[C@]23C)C1 [Compound 18, withanolide S]		> 5	
CC1=C(CO)C[C@H]([C@](C)(O)[C@]2(O)CC[C@@]3(O)[C@@H]4CC=C5CC=CC(=O)[C@]5(C)[C@H]4CC[C@]23C)OC1=O [Compound 21, withaperuvin J]	> 2		
CC1=C(C)C(=O)O[C@@H]([C@](C)(O)[C@]2(O)CC[C@@]3(O)[C@@H]4[C@@H](O)C=C5C=CCC(=O)[C@]5(C)[C@H]4CC[C@]23C)C1 [Compound 9, (20S,22R)-7β,14α,17β,20-tetrahydroxy-1-oxowitha-3,5,24-trienolide]	> 2		IC50 [3]: < 2 µM
CC1=C(C)C(=O)O[C@@H]([C@](C)(O)C2=CC[C@@]3(O)[C@@H]4C[C@H]5O[C@]56[C@@H](O)C=CC(=O)[C@]6(C)[C@H]4CC[C@]23C)C1 [Compound 14, phyperunolide A]		> 5	Cytotoxic to cancer cell lines [1]: cytotoxic
CC1=C(C)C(=O)O[C@@H]([C@](C)(O)[C@]2(O)CC[C@@]3(O)[C@@H]4C[C@H](Cl)[C@]5(O)CC=CC(=O)[C@]5(C)[C@H]4CC[C@]23C)C1 [Compound 23, 4-deoxyphysalolactone]		> 5	
CC1=C(C)C(=O)O[C@@H]([C@](C)(O)[C@]2(O)CC[C@@]3(O)[C@@H]4[C@@H](O)C=C5CC=CC(=O)[C@]5(C)[C@H]4CC[C@]23C)C1 [Compound 8, (20S,22R)-7β,14α,17β,20-tetrahydroxy-1-oxowitha-2,5,24-trienolide]	> 2		IC50 [3]: < 2 µM
